Assay results from BindingDB's records for patent US11299488 (Bristol-Myers Squibb Company, 2022).

molecular target: Rho-associated protein kinase 2 (Homo sapiens, UniProt O75116); test: In Vitro Assay
Procedure: The effectiveness of compounds of the present invention as ROCK inhibitors can be determined in a 30 μL assay containing 20 mM HEPES, pH 7.5, 20 mM MgCl2, 0.015% Brij-35, 4 mM DTT, 5 μM ATP and 1.5 μM peptide substrate (FITC-AHA-AKRRRLSSLRA-OH) (SEQ ID No. 1). Compounds were dissolved in DMSO so that the final concentration of DMSO was <2%, and the reaction was initiated with Rho kinase variants. After incubation, the reaction was terminated by the addition of EDTA and the phosphorylated and non-phosphorylated peptides separated using a LABCHIP 3000 Reader (Caliper Life Sciences). […] Compounds were tested in dose-response format, and the inhibition of kinase activity was calculated at each concentration of compound. The inhibition data were fit using a curve-fitting program to determine the IC50; i.e., the concentration of compound required to inhibit 50% of kinase activity.

Chain of Rho-associated protein kinase 2 (O75116 whole entry): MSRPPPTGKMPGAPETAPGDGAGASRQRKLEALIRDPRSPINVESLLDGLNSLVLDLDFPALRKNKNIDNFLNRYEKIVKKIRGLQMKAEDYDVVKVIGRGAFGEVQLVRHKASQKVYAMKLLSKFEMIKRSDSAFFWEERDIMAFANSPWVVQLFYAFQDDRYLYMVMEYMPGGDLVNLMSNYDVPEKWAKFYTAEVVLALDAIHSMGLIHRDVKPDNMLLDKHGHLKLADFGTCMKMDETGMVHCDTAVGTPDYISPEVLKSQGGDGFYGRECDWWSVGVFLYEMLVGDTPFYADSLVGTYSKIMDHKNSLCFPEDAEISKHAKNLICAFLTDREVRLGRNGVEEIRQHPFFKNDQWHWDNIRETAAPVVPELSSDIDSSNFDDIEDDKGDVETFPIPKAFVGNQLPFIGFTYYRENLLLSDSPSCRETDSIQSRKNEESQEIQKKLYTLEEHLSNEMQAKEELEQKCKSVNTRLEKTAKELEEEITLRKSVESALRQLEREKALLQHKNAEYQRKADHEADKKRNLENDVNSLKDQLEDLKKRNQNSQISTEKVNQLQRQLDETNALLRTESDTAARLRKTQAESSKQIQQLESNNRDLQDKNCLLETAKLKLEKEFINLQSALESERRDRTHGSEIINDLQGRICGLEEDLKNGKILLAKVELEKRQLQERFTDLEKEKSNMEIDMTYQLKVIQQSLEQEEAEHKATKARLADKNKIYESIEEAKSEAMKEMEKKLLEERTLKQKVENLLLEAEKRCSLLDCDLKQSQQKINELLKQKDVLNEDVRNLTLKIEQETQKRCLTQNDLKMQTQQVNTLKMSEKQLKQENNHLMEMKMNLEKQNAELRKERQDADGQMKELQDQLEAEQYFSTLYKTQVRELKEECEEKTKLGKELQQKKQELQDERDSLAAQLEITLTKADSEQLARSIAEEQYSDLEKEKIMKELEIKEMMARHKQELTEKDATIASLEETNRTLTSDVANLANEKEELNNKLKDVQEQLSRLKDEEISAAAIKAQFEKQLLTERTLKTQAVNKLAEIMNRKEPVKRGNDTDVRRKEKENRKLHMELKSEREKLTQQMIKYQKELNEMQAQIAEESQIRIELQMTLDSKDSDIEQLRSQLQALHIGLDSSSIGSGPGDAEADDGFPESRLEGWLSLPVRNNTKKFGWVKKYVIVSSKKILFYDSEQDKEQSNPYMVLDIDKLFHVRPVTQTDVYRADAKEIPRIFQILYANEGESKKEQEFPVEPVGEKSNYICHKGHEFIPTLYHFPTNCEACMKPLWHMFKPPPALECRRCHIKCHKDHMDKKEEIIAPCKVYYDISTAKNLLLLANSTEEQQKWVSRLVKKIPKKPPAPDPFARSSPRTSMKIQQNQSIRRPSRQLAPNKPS

IC50 [nM] | Compound
76 | NC(=O)c1cccnc1O[C@H]1CC2(C[C@H](Nc3nc4c(Cl)cccc4s3)C2)C1 (some centres not stated) [US11299488, Example 4]
396 | NC(=O)c1cccnc1O[C@H]1CC2(C[C@H](Nc3nc4c(F)cc(Cl)cc4s3)C2)C1 (some centres not stated) [US11299488, Example 7]
175 | NC(=O)c1cccnc1O[C@H]1CC2(C[C@H](Nc3nccc(N4CCCC(F)(F)C4)n3)C2)C1 (some centres not stated) [US11299488, Example 36]

The next lines start with the molecule.

Compound | IC50 [nM]
NC(=O)c1cccnc1O[C@H]1CC2(C[C@H](Nc3nc(-c4ccc(Cl)cc4)cs3)C2)C1 (some centres not stated) [US11299488, Example 9] | 3300
NC(=O)c1cccnc1O[C@H]1CC2(C[C@H](Nc3nc(-c4ccccc4Cl)cs3)C2)C1 (some centres not stated) [US11299488, Example 10] | 1700
NC(=O)c1cccnc1O[C@H]1CC2(C[C@H](Nc3nc4c(Cl)cc(Cl)cc4s3)C2)C1 (some centres not stated) [US11299488, Example 5] | 105
COc1cnc(N[C@H]2CC3(C2)C[C@H](Oc2ncccc2C(N)=O)C3)c2cc(Cl)ccc12 (some centres not stated) [US11299488, Example 27] | 15
